From PMC6804243, “Small-Molecule Inhibition of UBE2T/FANCL-Mediated Ubiquitylation in the Fanconi Anemia Pathway” (ACS Chemical Biology, 2019)

What was measured:
[1] = test system: T1, UBE2D1; assay: Gel-based ubiquitylation assay (UBE2D1/GST-FANCLRING), ubiquitylated UBE2D1 species; type: biochemical; conditions: E2 = UBE2D1, E3 = GST-FANCLRING; 30 min at 37 °C
T1 construct: His6 (N); made in house; host or cells: E. coli Rosetta (DE3)
Experimental: Figure 2 Gel-based ubiquitylation assays with confirmed HTRF hits. […] Western blots (WB) probed for GST or biotin as labeled. Reactions contained 20 nM His6-UBE1, 50 nM E2, 250 nM GST-E3, 500 nM biotinylated ubiquitin: (a) E2 = UBE2T, E3 = GST-FANCLRING, 30 min of reaction at 37 °C; (b) E2 = UBE2D1, E3 = GST-FANCLRING, 30 min of reaction at 37 °C; and (c) E2 = UBE2D1, E3 = GST-RNF8, 10 min of reaction at 37 °C.
In order to explore the selectivity of CU1, CU2, CU9, CU10, and CU12, we conducted a counter-screen against other E2 and E3 combinations. Since members of the UBE2D family of E2s are known to ubiquitylate multiple substrates in vitro,[13] a ubiquitylation assay featuring UBE2D1 and GST-FANCLRING was performed. With UBE2D1, multiple ubiquitylated GST-FANCLRING species could be observed (Figure 2b).
Purified protein was concentrated using a Vivaspin-6 concentrator with a 10 kDa MW cut-off (Vivascience) and flash-frozen in small aliquots for storage at […]
Cy5 labelling of ubiquitin. […]
Homogeneous Time-Resolved Fluorescence (HTRF) Assay. […]
(v/v) DMSO. […] Signal was measured at λEx 340 nm and λEm 665 nm and 620 nm using a PHERAstar FS plate reader
(BMG Labtech). A ratio was calculated as [λEm(665)/λEm(620)] × 104 for each well and this was used to determine the percent inhibition for test compounds. […]

[2] = test system: UBE2T; assay: Binding to UBE2T by differential scanning fluorimetry, ligand-observed NMR, native mass spectrometry; conditions: native mass spectrometry (unpublished data)

SMILES | formation of ubiquitylated UBE2D1 species [1] | binding to UBE2T [2]
NC(=O)[C@@H]1CCCN1C(=O)c1cc(-n2cccc2)ccc1Cl [CU12] | prevented the formation of any ubiquitylated UBE2D1 species | 
CCN1CCN(c2cc(C)nc3nc(CN4CCCCC4C)nn23)CC1 (centres unmarked) [CU2] |  | did not observe binding
